Measured values: patent publication US7119221B2, “Cycloalkyl-hydroxyl compounds and compositions for cholesterol management and related uses” (Esperion Therapeutics, Inc., priority 2003, dated 2006)

Key:
obese female Zucker rats = test: Oral daily treatment of chow fed obese female Zucker rats for fourteen days: serum lipids, glycemic control indicators, body weight; format: in vivo, rat; conditions: oral gavage, 14 days; for % wt. gain: obese female Zucker rats; for Glucose, Percent of Pre-treatment: blood glucose after 6 hour fast; for HDL-C, Percent of Pre-treatment / Insulin, Percent of Pre-treatment / Non-HDL-C, Percent of Pre-treatment: serum; for BHA, Percent of Pre-treatment: serum beta-hydroxy butyric acid; for NEFA, Percent of Pre-treatment: serum non-esterified fatty acids; for HDL-C/non-HDL-C: serum ratio; for TC, Percent of Pre-treatment: serum total cholesterol; for TG, Percent of Pre-treatment: serum triglycerides
Procedure: In a number of different experiments, illustrative compounds of the invention are administered daily at a dose of up to 100 mg/kg to chow fed obese female Zucker rats for fourteen days in the morning by oral gavage in 1.5% carboxymethylcellulose/0.2% Tween 20 or 20% ethanol/80% polyethylene glycol (dosing vehicles). Animals are weighed daily. Animals are allowed free access to rodent chow and water throughout the study except on days of blood sampling where food is restricted for six hours prior to blood sampling. Blood glucose is determined after the 6 hour fast in the afternoon without anesthesia from a tail vein. Serum is also prepared from pretreatment blood samples subsequently obtained from the orbital venous plexus (with O2/CO2 anesthesia) and following the fourteenth dose at sacrifice from the heart following O2/CO2 anesthesia. Serums are assayed for lipoprotein cholesterol profiles, triglycerides, total cholesterol, Non-HDL cholesterol, HDL cholesterol, the ratio of HDL cholesterol to that of Non-HDL cholesterol, insulin, non-esterified fatty acids, and beta-hydroxy butyric acid. The percent body weight gain and the ratio of liver to body weight is also determined. These are shown as absolute values or as a percent change of the pretreatment values in Table 1.

primary rat hepatocytes = test: Inhibition of lipid synthesis ([1-14C]-acetate incorporation) in primary cultures of rat hepatocytes; format: cell-based; conditions: Hepatocyte, 4 hour incubation with [1-14C]-acetate, 0-300 μM compound
Procedure: Compounds were tested for inhibition of lipid synthesis in primary cultures of rat hepatocytes. Male Sprague-Dawley rats were anesthetized with intraperitoneal injection of sodium pentobarbital (80 mg/kg). Rat hepatocytes were isolated essentially as described by the method of Seglen (Seglen, P. O. Hepatocyte suspensions and cultures as tools in experimental carcinogenesis. J. Toxicol. Environ. Health 1979, 5, 551–560). Hepatocytes were suspended in Dulbecco's Modified Eagles Medium containing 25 mM D-glucose, 14 mM HEPES, 5 mM L-glutamine, 5 mM leucine, 5 mM alanine, 10 mM lactate, 1 mM pyruvate, 0.2% bovine serum albumin, 17.4 mM non-essential amino acids, 20% fetal bovine serum, 100 nM insulin and 20 μg/mL gentamycin) and plated at a density of 1.5×10^5 cells/cm^2 on collagen-coated 96-well plates. Four hours after plating, media was replaced with the same media without serum. Cells were grown overnight to allow formation of monolayer cultures. Lipid synthesis incubation conditions were initially assessed to ensure the linearity of [1-^14C]-acetate incorporation into hepatocyte lipids for up to 4 hours. Hepatocyte lipid synthesis inhibitory activity was assessed during incubations in the presence of 0.25 μCi [1-^14C]-acetate/well (final radiospecific activity in assay is 1 Ci/mol) and 0, 1, 3, 10, 30, 100 or 300 μM of compounds for 4 hours. At the end of the 4-hour incubation period, medium was discarded and cells were washed twice with ice-cold phosphate buffered saline and stored frozen prior to analysis. To determine total lipid synthesis, 170 μl of MicroScint-E® and 50 μl water was added to each well to extract and partition the lipid soluble products to the upper organic phase containing the scintillant. Lipid radioactivity was assessed by scintillation spectroscopy in a Packard TopCount NXT.

Row | Structure (SMILES) | IC50 (primary rat hepatocytes) [µM] | % wt. gain (obese female Zucker rats; 100 mg/kg/day) [%] | Glucose, Percent of Pre-treatment (obese female Zucker rats; 100 mg/kg/day) [%] | HDL-C, Percent of Pre-treatment (obese female Zucker rats; 100 mg/kg/day) [%] | Insulin, Percent of Pre-treatment (obese female Zucker rats; 100 mg/kg/day) [%] | Non-HDL-C, Percent of Pre-treatment (obese female Zucker rats; 100 mg/kg/day) [%] | BHA, Percent of Pre-treatment (obese female Zucker rats; 100 mg/kg/day) [%] | NEFA, Percent of Pre-treatment (obese female Zucker rats; 100 mg/kg/day) [%] | HDL-C/non-HDL-C (obese female Zucker rats; 100 mg/kg/day) | TC, Percent of Pre-treatment (obese female Zucker rats; 100 mg/kg/day) [%] | TG, Percent of Pre-treatment (obese female Zucker rats; 100 mg/kg/day) [%] | other results
1 | CC(C)(CCCCC(O)CCCCC1(C(=O)O)CCC1)C(=O)O (stereo not shown) [A] | 12 | – | – | – | – | – | – | – | – | – | – | % wt. gain (obese female Zucker rats; 30 mg/kg/day): 12.3%; Glucose, Percent of Pre-treatment (obese female Zucker rats; 30 mg/kg/day): −1%; HDL-C, Percent of Pre-treatment (obese female Zucker rats; 30 mg/kg/day): 76%; Insulin, Percent of Pre-treatment (obese female Zucker rats; 30 mg/kg/day): −8%; Non-HDL-C, Percent of Pre-treatment (obese female Zucker rats; 30 mg/kg/day): −20%; BHA, Percent of Pre-treatment (obese female Zucker rats; 30 mg/kg/day): 150%; NEFA, Percent of Pre-treatment (obese female Zucker rats; 30 mg/kg/day): −30%; HDL-C/non-HDL-C (obese female Zucker rats; 30 mg/kg/day): 4; TC, Percent of Pre-treatment (obese female Zucker rats; 30 mg/kg/day): 37%; TG, Percent of Pre-treatment (obese female Zucker rats; 30 mg/kg/day): −23%
2 | O=C(O)C1(CCCCCC(O)CCCCCC2(C(=O)O)CC2)CC1 [B] | 0.9 | 4.2 | −24 | 54 | −51 | −94 | 254 | −23 | 153 | 13 | −91 | –
3 | O=C(O)C1(CCCCCC(O)CCCCCC2(C(=O)O)CCCC2)CCCC1 [Compound 6.33, 1-[11-(1-Carboxycyclopentyl)-6-hydroxyundecyl]-1-cyclopentanecarboxylic acid] | – | – | – | – | – | – | – | – | – | – | – | melting point: 76 to 77 °C
4 | CC(C)(CCCCC(O)CCCCC1(C(=O)O)CC1)C(=O)O (stereo not shown) [Compound E] | 3 | 10.4 | −2 | 162 | 2 | 1 | 223 | −24 | 5 | 101 | −34 | –
5 | CC(C)(CCCCCC(O)CCCCCC1(C(=O)O)CC1)C(=O)O (stereo not shown) [D] | 1.4 | −1.7 | −13 | 15 | −70 | −98 | 195 | −44 | 785 | −11 | −97 | –
6 | O=C(O)C1(CCCCC(O)CCCCC2(C(=O)O)CC2)CC1 [F] | 1.8 | – | – | – | – | – | – | – | – | – | – | –
